Here are results for four compounds from BindingDB's records for doi:10.1074/jbc.M112.341321 (Council of Scientific and Industrial Research (Csir) Indian …, 2012).

What all share (assay): Tautomerase Activity Assay
Assay [1] deals with T1, Macrophage migration inhibitory factor (Plasmodium falciparum (isolate 3D7), UniProt Q8I5C5).
T1 sequence (Q8I5C5 whole entry): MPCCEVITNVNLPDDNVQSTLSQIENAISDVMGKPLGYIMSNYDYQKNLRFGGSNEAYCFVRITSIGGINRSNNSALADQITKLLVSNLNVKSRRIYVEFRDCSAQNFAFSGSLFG
The source says: (§1) The tautomerase activity of MIFs was monitored by following the tautomerization of L-dopachrome methyl ester by the recombinant MIFs in the presence or absence of increasing concentrations of all six limonoids extracted from neem.

In assay [2] the target is T2, Macrophage migration inhibitory factor-like protein (Plasmodium yoelii yoelii, UniProt Q1HEA2).
T2 sequence (Q1HEA2 whole entry): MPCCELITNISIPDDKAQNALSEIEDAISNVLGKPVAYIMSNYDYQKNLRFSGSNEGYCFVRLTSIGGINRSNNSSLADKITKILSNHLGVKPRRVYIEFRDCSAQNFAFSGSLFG
Text: as §1

The target in assay [3] is T3, Macrophage migration inhibitory factor (Homo sapiens, UniProt P14174).
T3 sequence (P14174 whole entry): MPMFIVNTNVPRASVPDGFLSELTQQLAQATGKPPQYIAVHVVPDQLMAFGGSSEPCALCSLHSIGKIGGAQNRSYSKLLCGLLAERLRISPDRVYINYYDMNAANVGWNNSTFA
Text: as §1

Consider `CC(=O)O[C@@H]1C[C@H]2C(C)(C)C(=O)C=C[C@]2(C)[C@H]2CC[C@@]3(C)[C@H](c4ccoc4)C(=O)[C@H]4O[C@]43[C@@]21C` [Epoxyazadiradione], for which the IC50 in assay [1] was found to be 9.5 µM; in assay [2], 9.8 µM.

`COC(=O)C[C@H]1[C@]2(C)C3=C(C)[C@H](c4ccoc4)C[C@H]3O[C@@H]2[C@H](OC(C)=O)[C@@H]2[C@]1(C)C(=O)C=C[C@@]2(C)C(=O)OC` [Nimbin]: the IC50 was 17.5 µM in assay [3], 22.5 µM in assay [1] and 22.4 µM in assay [2].

Consider `C/C=C(\C)C(=O)O[C@H]1C[C@@H](OC(C)=O)[C@@]2(C)CO[C@H]3[C@H]4O[C@@H]5C[C@@H](c6ccoc6)C(C)=C5[C@@]4(C)[C@H](CC(=O)OC)[C@]1(C)[C@@H]32` [Salannin], for which the IC50 turned out to be 85.3 µM in assay [3], 89.5 µM in assay [1] and 95.2 µM in assay [2].

On to `CC(=O)O[C@@H]1C[C@H]2C(C)(C)C(=O)C=C[C@]2(C)[C@H]2CC[C@]3(C)C(=CC(=O)[C@H]3c3ccoc3)[C@@]21C` [Azadiradione], for which the IC50 in assay [3] was 35.2 µM; in assay [1] it was 45.6 µM; in assay [2], 43 µM.

Broadly, the IC50 is the midpoint of a concentration-inhibition curve. A lower IC50 goes with inhibition by little substance.
